The values that follow come from PubChem BioAssay AID2305 (GlaxoSmithKline (GSK), 2010).

The assay has as its system P. falciparum 3D7 growth, pLDH absorbance. Description: P. falciparum 3D7 growth inhibition, dose response, strain 3D7 (AID 2305).

In general, IC50 refers to the concentration that inhibits the measured activity by half.

Values joined by “and” are separate entries in the source; they are usually repeats but may differ in a detail not shown here. Equal entries are not always repeated.

The molecule `Cc1ccc(C2(O)C[C@H]3CC[C@@H](C2)N3C)cc1` (stereo not given in full) had a concentration for half-maximal inhibition (IC50) of 610 nM.
Next, `O=c1cc(NCCCNCc2cccc(OC(F)(F)F)c2)[nH]c2ccccc12`: 850 nM.
Next, `Cc1ccnc2nc(C(=O)Nc3cc(Cl)ccc3N3CCOCC3)nn12`: 1240 nM; `CC(C)(C)NS(=O)(=O)c1cc(C(=O)N2CCC(CCN3CCC(O)(c4cccc(C(F)(F)F)c4)CC3)(c3cccc(F)c3)CC2)c(Cl)cc1F`: 860 nM.
Next, `O=C(/C=C/c1c(Cl)cccc1Cl)NC1CCC(CN2[C@@H]3CC[C@H]2CC(c2c[nH]c4ccccc24)C3)CC1` (stereo not given in full): 840 nM; `Cn1cccc1CCNCc1ccc(-c2cccc(-c3nc4ccccc4[nH]3)c2)cc1`: 1210 nM.
Consider `COc1ccc2ncc(C#N)c(CCN3CCC(NCc4ccc5c(c4)OCCO5)CC3)c2c1`, for which the IC50 is 910 nM.
Next, `Cc1cc(-c2ccc(Cl)cc2)c2c(N)c(C(=O)Nc3ccc(F)cc3)sc2n1`: 820 nM; `O[C@@H](c1cccc2ccccc12)[C@@H]1CN(CCc2ccccc2)CC[C@@]1(O)c1ccccc1`: 140 nM; `CC(C)CCNC(=O)C1Cc2c([nH]c3cc(Br)ccc23)C2(CCN(Cc3ccccc3)CC2)N1` (stereo not given): 790 nM.
Next, `O=C(/C=C/c1ccc(Cl)c(Cl)c1)NCCC1CCC(N2CCC(c3c[nH]c4ccc(O)cc34)CC2)CC1` (stereo not given): 760 nM.
In turn, `C=CCOC(=O)N1CCC(CNCc2cccc(-c3cccc(-c4nc5ccc(F)cc5[nH]4)c3)c2)C1` (stereo not given) yielded an IC50 of 210 nM.
As for `Cc1ccc(/C=C/C(=O)NCCCCCN2CCN(C(=O)Nc3ccc(Cl)c(C(F)(F)F)c3)CC2)cc1`, the figure is 1110 nM; as for `CCCC(CNCc1cccc(SC(F)(F)F)c1)CNc1cc(=O)c2ccccc2[nH]1` (stereo not given), 710 nM.
In turn, `CN1CCN(CCCN(Cc2csc(-c3ccc(CNCc4ccccc4)cc3)n2)S(=O)(=O)c2ccccc2)CC1` had an IC50 of 770 nM.
Molecule `O=C(/C=C/c1ccc(Cl)c(Cl)c1)NCCC(CN1CCC(c2c[nH]c3ccccc23)CC1)c1ccccc1` (stereo not given) gave an IC50 of 570 nM.
Next, `Nc1nc(N)c2c(ccc3c2ccn3CCCC2CCCNC2)n1` (stereo not given): 900 nM; `CC1(C(=O)Nc2ccc([N+](=O)[O-])cc2O)CC2c3ccccc3C1c1ccccc12` (stereo not given): 710 nM.
`O=C(c1cccs1)N1N=C(c2cccs2)CC1c1cccc([N+](=O)[O-])c1` (stereo not given) gave an IC50 of 820 nM.
`Clc1ccc(OCc2ccccc2)c(Cc2ccc(-c3nc4ccncc4[nH]3)o2)c1` displayed a concentration for half-maximal inhibition (IC50) of 750 nM.
Next, `COc1cccc(CNC[C@@H](O)[C@H](Cc2ccccc2)NC(=O)c2cc(C3CCCC3)cc(N3CCCCS3(=O)=O)c2)c1`: 600 nM; `COc1ccc(Nc2ncc3c(-c4cccc(NC(=O)Cc5cccc(O)c5)c4)c[nH]c3n2)cc1OC`: 700 nM; `CCCCCCN1CCN(Cc2cccc(NC(=O)c3cc4ccccc4s3)c2)CC1`: 910 nM.
As for `Cc1ccc(Nc2nc(NN=Cc3cccc(O)c3)nc(Nc3ccc([N+](=O)[O-])cc3)n2)cc1C`, the figure is 740 nM.
For `O=S(=O)(NC1CCCCN(Cc2ccccc2O)C1)c1ccc(C(F)(F)F)cc1` (stereo not given), the IC50 was determined as 1300 nM.
`CCOC(=O)CC[C@@H](NC(=O)c1ccc(NCc2ccc3ccc4nc(C)[nH]c(=O)c4c3c2)cc1F)C(=O)N[C@@H](Cc1c[nH]c2ccccc12)C(=O)OCC` registered an IC50 of 1030 nM.
In turn, `O=c1cc(NCCCNCc2[nH]c3cc(Cl)ccc3c2Cl)[nH]c2ccccc12` gave an IC50 of 910 nM.
In turn, `CCOc1cc(NCCSCc2nc[nH]c2C)nc2ccccc12` had an IC50 of 790 nM.
As for `Cc1nn(-c2cccc(C(F)(F)F)c2)c2sc(C(=O)NC3CCN(C(C)C)CC3)cc12`, the figure is 900 nM.
As for `O=C(O)c1cccc2c(-c3ccncc3)cccc12`, the figure is 940 nM; as for `Cc1ccc(-c2cc3nc4c(c(NCCCn5ccnc5)n3n2)CCC4)cc1`, 920 nM; as for `O=C(Nc1ccc(-c2nc3ccc(NC(=O)c4ccc(Br)cc4)cc3[nH]2)cc1)c1ccc(Br)cc1`, 790 nM.
As for `NC(=O)c1cnc2cc(-c3ccncc3)cc(Nc3ccc(NC(=O)C4CCCCC4)cc3)c2c1`, the figure is 230 nM; as for `CCN(CC)CCOc1ccc(C(O)(C#CC(O)(c2ccccc2)c2ccc(OCCN(CC)CC)cc2)c2ccccc2)cc1` (stereo not given), 1310 nM; as for `COc1ccc(-c2ccc(NC(=O)c3ccc(Cl)cc3)cc2)cc1CN(C)CCN(C)C`, 670 nM.
Molecule `Cc1cccc2[nH]c(-c3ccc(-c4ccc(CNCc5ccc(CN)cc5)cc4)cc3)nc12` gave an IC50 of 720 nM.
As for `Cc1cc(NCCC(=O)Nc2ccccc2)nc(NCCc2cccnc2)n1`, the figure is 1240 nM.
The molecule `Cc1ccc(C(NC(=O)C2CCCCC2)c2ccc3cccnc3c2O)cc1` (stereo not given) registered an IC50 of 950 nM.
Take `CN1CCN(c2ccc(-c3cc(-c4cc(F)c(F)c(F)c4)cnc3N)cc2)CC1`: the IC50 was 1010 nM.
Next, `Cc1cc(=O)[nH]c(-n2nc(C)cc2NC(=O)CC(c2ccccc2)c2ccccc2)n1`: 1100 nM; `CCc1c(CCNCCCCCCNCCc2ccccc2)ccc(OC)c1OC`: 800 nM; `Cc1cc(NN=Cc2ccccc2[N+](=O)[O-])c2ccc(F)cc2n1`: 350 nM.
Next, `CCCOc1ccc(CCNCCCCNCCc2ccc(OCCC)c3ccccc23)c2ccccc12`: 920 nM.
Next, `O=C(Nc1ccc(-c2ccccc2)s1)N[C@H]1CCN(Cc2ccc(OCCCN3CCCCC3)cc2)C1`: 740 nM; `CCCCOc1c(CCNCCCCNCCc2cc(F)c3ccccc3c2OCCCC)cc(F)c2ccccc12`: 630 nM; `NC(=O)c1ccccc1OCC(=O)Nc1cccc(-c2cccc(-c3nc4ccccc4[nH]3)c2)c1`: 380 nM.
For the molecule `O=C(Nc1ccc2nccc(N3CCN4CCC[C@H]4C3)c2c1)c1ccc(Cl)c(Cl)c1`, the IC50 is 340 nM.
Next, `Cc1cc(N[C@@H](CC(C)C)C(=O)NCCOc2ccccc2)nc(NCC2CCCCC2)n1`: 970 nM.
Molecule `COc1ccc(OCCCN2CCCCC2)cc1S(=O)(=O)c1ccc(OCc2ccc(C(F)(F)F)cc2)cc1` had an IC50 of 1010 nM.
As for `O=C(Nc1ccc(Cn2ncc(N3CCCNCC3)c(Cl)c2=O)cc1)Nc1ccc(C(F)(F)F)cc1`, the figure is 730 nM.
As for `CCC(CC(NCCCCNC(=O)c1ccc(NC(=O)c2ccc(Cl)cc2)cc1)c1ccccc1)c1ccccc1OC` (stereo not given), the figure is 670 nM and 790 nM; as for `Oc1ccc2ccccc2c1CNC1CCCCCC1`, 930 nM.
`CCC(C)C#Cc1c(C)nc(N)nc1N` (stereo not given) came in with an IC50 of 260 nM.
As for `OCC1CCN(Cc2ccc(-c3ccc(-c4nc5ccccc5[nH]4)cc3)cc2)CC1`, the figure is 900 nM; as for `O=C1CCCN1CCCNCc1cccc(-c2cccc(-c3nc4ccc(F)cc4[nH]3)c2)c1`, 600 nM.
Next, `Cc1cccc2[nH]c(-c3ccc(-c4cccc(CN5CCN(c6ccncc6)CC5)c4)s3)nc12`: 130 nM; `CN(C)CCCN1CCN(Cc2ccc(-c3ccc(-c4nc5ccccc5[nH]4)s3)cc2)CC1`: 820 nM.
As for `FC(F)(F)c1cc(Nc2ncnc3ccc(Br)cc23)ccc1OCc1ccccc1`, the figure is 1080 nM; as for `CS(=O)(=O)Cc1ccc(Nc2nccc(N3CCCc4cc(NC(=O)Nc5cccc(C(F)(F)F)c5)ccc43)n2)cc1`, 150 nM; as for `CCC[C@@H]([C@@H](CC1CCCCC1)C(=O)N[C@H](C(=O)Nc1nccs1)C(C)(C)SC)N(O)C=O`, 150 nM.
With `Cc1cc(=O)c(-c2ccc(Oc3cccc(Cl)c3)cc2)c(C)[nH]1`, the concentration for half-maximal inhibition (IC50) is 600 nM.
Next, `CCc1cccc(NC(=O)c2ccc(CN3CCCN(CC4CCCCC4)CC3)cc2)c1`: 400 nM.
Next, `COc1ccc(CNCc2ccc(F)cc2)cc1-c1cccc(S(=O)(=O)NCCN2CCCC2)c1`: 800 nM.
Next, `COc1ccc2nccc([C@@H](O)CN3CCC(NCCOc4ccncc4)CC3)c2c1`: 690 nM.
For `O=C(Nc1cccc(C(F)(F)F)c1)Nc1ccc(Cl)c(Cl)c1`, the IC50 is 740 nM.
For `CC(C)NCc1cccc(-c2cccc(-c3nc4ccc(F)cc4[nH]3)c2)c1`, the IC50 stood at 280 nM.
As for `O=C(Nc1ccc(Cn2ncc(N3CCCNCC3)c(Cl)c2=O)cc1)Nc1cccc(Oc2ccccc2)c1`, the figure is 990 nM.
The molecule `COc1cccc(CC(=O)NC2CCN(c3ccnc4cc(Cl)ccc34)C2)c1` (stereo not given) displayed an IC50 of 700 nM.
`Cc1cccc2[nH]c(-c3ccc(-c4cccc(NC(=O)NCc5cccc(F)c5)c4)cc3)nc12`: the IC50 is 850 nM.
The molecule `COc1cc(CNC[C@@H](O)[C@H](Cc2ccccc2)NC(=O)c2cc(OC(C)C)cc(N3CCCCS3(=O)=O)c2)cc(OC)c1` displayed an IC50 of 590 nM.
As for `Cc1cc(NN=Cc2cccc([N+](=O)[O-])c2)c2ccc(C(F)(F)F)cc2n1`, the figure is 880 nM.
Next, `Cc1cccc2[nH]c(-c3cccc(-c4cccc(C(=O)N5CCCCC5CN5CCC(O)C5)c4)c3)nc12` (stereo not given): 460 nM.
Next, `CN1CCN(c2cc(NC(=O)Nc3cccc(Cl)c3Cl)ccc2Cl)CC1`: 730 nM; `O=S(=O)(Nc1cccc(CCN2CCC(N3CCCCC3)CC2)c1)c1ccc2c(c1)OCCO2`: 1230 nM; `COc1cc(C(=O)NC2CCN(Cc3ccccc3)CC2)ccc1-c1nc2cc(Cl)c(C)cc2[nH]1`: 300 nM.
For `COc1ccc2ncc(F)c(CCN3C[C@H](CNCc4ccc5c(n4)NC(=O)CS5)[C@H](O)C3)c2c1`, the IC50 came out at 780 nM.
Next, `O=C(Nc1ccc2c(c1)CCN2C1CCN(Cc2ccc(F)cc2Cl)C1)c1ccco1` (stereo not given): 470 nM; `CS(=O)(=O)c1ccc(CNCc2cccc(-c3cccc(-c4nc5ccc(F)cc5[nH]4)c3)c2)cc1`: 560 nM.
Next, `COc1ccc(C=NNc2ccnc3ccccc23)c2ccccc12`: 700 nM; `CCOc1cc(CC)ccc1C1CCN(CCCCNC(=O)c2ccc(NC(=O)c3ccc(Cl)cc3)cc2)CC1`: 740 nM; `CC(C)(C)c1ccc(NC(=O)c2ccc(CN3CCCN(CC4CCCCC4)CC3)cc2)cc1`: 540 nM.
As for `CCN1CCN(CCCNc2ccnc3cc(Cl)ccc23)CC1`, the figure is 70 nM; as for `COc1cc2c(cc1S(=O)(=O)c1ccc(NC(=O)c3cc4ccccc4s3)cc1)CCN(C)CC2`, 840 nM.
As to `c1ccc2sc(Sc3ncnc4sccc34)nc2c1`, the IC50 came out at 730 nM.
As for `CN(C)CC(=O)NCC(NCCCNc1cc(=O)c2ccccc2[nH]1)c1cc(Br)cc(Br)c1` (stereo not given), the figure is 1050 nM.
